{
  "source": "patent US8765692B2",
  "about": "“Modified-galactosyl ceramides for staining and stimulating natural killer T cells” (The Scripps Research Institute, priority 2006, dated 2014)",
  "key": {"[1]": {"assay": "Solubility in DMSO", "assay_type": "physicochemical", "conditions": "for solubility: 20 °C, organic solvent or mixture; for solubility (in words): relative to KRN7000 or fully saturated compounds", "method": "As with most glycolipids, solubility issues are central to handling the compounds. Compounds are usually solubilized in DMSO, and then diluted to working concentrations in aqueous solutions. […] In suitable embodiments, the compounds of the invention are at least about 10 mg/mL in DMSO under ambient conditions (approximately 20° C.). In more suitable embodiments, the compounds of the invention are at least about 20 mg/mL in DMSO at ambient temperature. In further suitable embodiments, the compounds of the invention are at least 80%, at least two-fold, or at least 4-fold relative to the solubility of KRN7000 in DMSO at ambient temperature."}, "[2]": {"system": "NKT cells (B6 mouse splenocytes)", "assay": "Cytokine release in vitro from mouse splenocytes (IL-4 and IFNγ ELISA)", "assay_type": "cell-based", "conditions": "for concentration at which cytokine responses plateau: 5×10^5 B6 splenocytes, IL-4 and IFNγ ELISA, FIG. 6", "method": "To determine if PBS-57 stimulated cytokine release by NKT cells in vitro, 5×10^5 mouse splenocytes isolated from B6 mice were incubated in separate wells with 10^5, 10^4, 10^3, 100, 10 and 1 pg/mL of PBS-57 or KRN7000 in RPMI 1640 media supplemented with 10% FBS, 50 μM 2-mercaptoethanol, 2 mM glutamine and antibiotics. After 48 hours, IL-4 and IFNγ levels were measured by ELISA (BD Pharmingen)."}, "[3]": {"system": "Vα14i NKT cells", "assay": "Staining of Vα14i NKT cells with glycolipid-loaded mouse CD1d tetramers (flow cytometry)", "assay_type": "cell-based", "conditions": "summary statement, compared with KRN7000", "method": "An typical means to isolate and quantify CD1 responsive NKT cells is through flow cytometry using fluorophore tagged CD1d tetramers loaded with sphingoglycolipids. To test for the ability of PBS-57 to facilitate CD1d tetramer staining, glycolipid-loaded CD1d tetramers were formed. Biotinylated mouse sCD1d molecules (in PBS) were mixed with PBS-57 or KRN7000 at a molar ratio of 1:3 (protein:lipid) and incubated overnight at room temperature. The following day, 80 μg of streptavidin-PE (Pharmagen) was added to 200 μg of the CD1-glycolipid mix and incubated at room temperature for 4 hours. Tetramers were stored at 4° C. until use.\nSingle cell suspensions of thymocytes and splenocytes were isolated from C57BL/6J mice (Jackson Laboratories, Bar Harbor, Me.) as known in the art. The TCR repertoire of the NKT cells was limited with an invariable Vα subunit (Vα14 in mice) and varied Vβ subunits. 10^6 cells were incubated with 200 μL staining media (2% BSA, 1% NaN3, 10 mM EDTA in PBS) with 2.4G2 (1:100; ATCC, Manassas, Va.) and Neutravidin (5 μg/200 μl; Molecular Probes, Eugene, Oreg.) for 20 minutes on ice. […] Cells were washed twice in staining media, fixed with 1% paraformaldehyde in PBS and analyzed by flow cytometry."}, "[4]": {"system": "NKT cell hybridomas", "assay": "Binding of PBS-57 loaded CD1d tetramers to NKT cell hybridomas expressing different Vβ", "assay_type": "cell-based", "conditions": "hybridomas with different Vβ TCR, 37° C. 4 hours, FIG. 4", "method": "The TCR expressed on NKT cells are limited to a invariant Vα subunit, and a variable Vβ subunit that respond to glycolipid presentation by CD1d. To determine if PBS-57 loaded tetramers were Vβ subunit specific in their ability to bind, NKT cell hybridomas expressing different Vβ were tested for their ability to bind PBS-57 loaded CD1d tetramers.\nFor staining of NKT cell hybridomas, soluble CD1d (sCD1d) tetramers were loaded with PBS-57 or KRN7000 by the following procedure. Stock reagents of the following were prepared: sCD1d (1 mg/ml in phosphate buffer saline (PBS)); PBS-57 (1 mg/ml in DMSO); Tween 20 (0.5% in PBS); and streptavidin-APC (80 μg/mL in PBS). 10 μL sCD1d stock, 1 μL PBS-57 stock, and 10 μL Tween 20 stock were mixed, and 79 μL PBS was added to bring the volume up to 100 μL. […] To separate unbound glycolipid, the mixture was applied to a Microcon YM30 filter (Millipore) that has been previously wetted with PBS (400 μL). The loaded membrane was centrifuged until only ˜10 μL of solution remained. The volume was then increased to 100 μL by addition of PBS. The solution was agitated to aid in freeing the protein from the filter. The Microcon unit was inverted into a fresh Eppendorf tube and the contents were centrifuged into the tube. A 10 μL aliquot of the solution was removed and the streptavidin-APC solution (5 μL) was added. […]"}, "[5]": {"system": "NKT cells", "assay": "CD1d tetramer staining of NKT cells in human blood samples", "assay_type": "cell-based", "conditions": "PBS-57 loaded mouse and human CD1d tetramers", "source_text": "(§1) To test whether PBS-57 could facilitate NKT cell binding in blood samples of both human and non-human primates, mouse and human CD1d tetramers were loaded with PBS-57 as described in Example 2. A majority of the human blood samples contained sufficient NKT cells (>0.08% of CD3-positive cells) to observe staining (14 out of 17 samples), while some samples may have contained too few NKT cells to allow detection of staining (Lee et al., 2002)."}, "[6]": {"system": "NKT cells", "assay": "CD1d tetramer staining of NKT cells in chimpanzee blood samples", "assay_type": "cell-based", "conditions": "PBS-57 loaded CD1d tetramers", "source_text": "as §1"}, "[7]": {"system": "NKT cells", "assay": "CD1d tetramer staining of NKT cells in rhesus macaque blood samples", "assay_type": "cell-based", "conditions": "rhesus macaques, 12 samples", "source_text": "as §1"}, "[8]": {"system": "NKT cells", "assay": "CD1d tetramer staining of NKT cells in pigtail macaque blood samples", "assay_type": "cell-based", "conditions": "pigtail macaques", "source_text": "as §1"}, "[9]": {"system": "NKT cells", "assay": "CD1d tetramer staining of NKT cells in sooty mangabey blood samples", "assay_type": "cell-based", "conditions": "sooty mangabeys", "source_text": "as §1"}, "[10]": {"system": "NKT cells", "assay": "Cytokine release in vivo: serum INF-γ after intravenous injection", "parameters": "species or system mouse", "method": "To examine if PBS-57 elicited an immune response in vivo, the ability of PBS-57 and KRN7000 to elicit an increase in cytokine levels in a mouse was assayed. 1 mg/ml stock solutions of PBS-57 and KRN7000 in DMSO were prepared. The PBS-57 and KRN7000 solutions were diluted with PBS to 1, 100, 10^4, and 10^6 pg/mL. 100 μL of each solution was injected intravenously into 6 week-old B6 mice. Serum samples were isolated from the mice at 24 hours, and the concentration of INF-γ was assayed by ELISA (BD Pharmingen)."}},
  "data": [
    {"smiles": "CCCCCCCCCCCCCCCCCCCCCCCCCC(=O)N[C@@H](CO[C@H]1O[C@H](CO)[C@H](O)[C@H](O)[C@H]1O)[C@H](O)[C@H](O)CCCCCCCCCCCCCC", "note": "[KRN7000, reference compound]", "values": [
      {"measurement": "solubility", "setting": "[1]", "result": "< 5", "unit": "mg/mL"},
      {"measurement": "solubility (in words)", "setting": "[1]", "result": "relatively poor solubility in either aqueous or organic solvents"},
      {"measurement": "concentration at which cytokine responses plateau", "setting": "[2]; 48 hours", "result": "~1000", "unit": "pg/mL"}
    ]},
    {"smiles": "CCCCCCCCC=CCCCCCCCCCCCCCC(=O)N[C@@H](OC1OC(CNC(C)=O)C(O)C(O)C1O)C(O)[C@H](O)CCCCCCCCCCCCCC", "note": "(stereo partly drawn) [PBS-57]", "values": [
      {"measurement": "solubility", "setting": "[1]", "result": 20, "unit": "mg/mL"},
      {"measurement": "solubility", "setting": "[1]; molar value printed in parentheses", "result": 22.4, "unit": "mM"},
      {"measurement": "solubility (in words)", "setting": "[1]", "result": "relatively high solubility"},
      {"measurement": "staining of mouse and human NKT cells (summary)", "setting": "[3]", "result": "as well as KRN7000"},
      {"measurement": "effect of Vβ subunit variation on binding of loaded CD1d tetramers", "setting": "[4]", "result": "did not affect the binding"},
      {"measurement": "blood samples with observable NKT cell staining", "setting": "[5]", "result": "14 out of 17"},
      {"measurement": "blood samples with significant NKT cell staining", "setting": "[6]", "result": "6 out of 10"},
      {"measurement": "share of blood samples with significant NKT cell staining", "setting": "[7]", "result": "one quarter"},
      {"measurement": "NKT cell staining in blood samples", "setting": "[8]", "result": "No staining"},
      {"measurement": "NKT cell staining in blood samples", "setting": "[9]", "result": "No staining"},
      {"measurement": "concentration at which cytokine responses plateau", "setting": "[2]; 48 hours", "result": "approximately 100 pg/mL"},
      {"measurement": "Th1 and Th2 cytokine secretion", "setting": "[2]; B6 splenocytes, 48 hours", "result": "able to induce both Th1 and Th2 cytokine secretion"},
      {"measurement": "NKT cell stimulation in vitro relative to KRN7000", "setting": "[2]; summary statement, in vitro", "result": "stimulates NKT cells more effectively than KRN7000"},
      {"measurement": "serum INF-γ concentration relative to KRN7000", "setting": "[10]; B6 mice, intravenous, 100 μL of 1 to 10^6 pg/mL, serum at 24 hours, FIG. 7", "result": "equal to or greater than KRN7000"},
      {"measurement": "NKT cell stimulation in vivo relative to KRN7000", "setting": "[10]; summary statement, in vivo", "result": "stimulates NKT cells more effectively than KRN7000"}
    ]}
  ]
}
